The CheMixHub viscosity set
± gives the uncertainty stated by the source.

Assay: xn = mol fraction of the nth substance listed

CC(Cl)(Cl)Cl + C1CCCCC1
viscosity (303.15 K, 101 kPa, x1 = 0.157): 0.7897 ± 0.02 mPa·s | viscosity (303.15 K, 101 kPa, x1 = 0.2218): 0.776 ± 0.02 mPa·s | viscosity (303.15 K, 101 kPa, x1 = 0.2876): 0.7624 ± 0.02 mPa·s | viscosity (303.15 K, 101 kPa, x1 = 0.3722): 0.7462 ± 0.019 mPa·s | viscosity (303.15 K, 101 kPa, x1 = 0.4768): 0.7297 ± 0.019 mPa·s | viscosity (303.15 K, 101 kPa, x1 = 0.543): 0.7219 ± 0.019 mPa·s | viscosity (303.15 K, 101 kPa, x1 = 0.679): 0.713 ± 0.018 mPa·s | viscosity (303.15 K, 101 kPa, x1 = 0.7525): 0.7123 ± 0.018 mPa·s | viscosity (303.15 K, 101 kPa, x1 = 0.8597): 0.716 ± 0.018 mPa·s | viscosity (303.15 K, 101 kPa, x1 = 0.9403): 0.7201 ± 0.019 mPa·s

O=C(O)CC(O)(CC(=O)O)C(=O)O + CC(O)CO
viscosity (298 K, 101.3 kPa, x1 = 0.333): 2188 ± 130 mPa·s | viscosity (323 K, 101.3 kPa, x1 = 0.333): 571 ± 23 mPa·s

CC(Cl)(Cl)Cl + CCCCCCCO
viscosity (303.15 K, 101 kPa, x2 = 0.1177): 0.974 ± 0.023 mPa·s | viscosity (303.15 K, 101 kPa, x2 = 0.2075): 1.143 ± 0.025 mPa·s | viscosity (303.15 K, 101 kPa, x2 = 0.4385): 1.666 ± 0.03 mPa·s | viscosity (303.15 K, 101 kPa, x2 = 0.5262): 1.941 ± 0.032 mPa·s | viscosity (303.15 K, 101 kPa, x2 = 0.5911): 2.186 ± 0.033 mPa·s | viscosity (303.15 K, 101 kPa, x2 = 0.6407): 2.407 ± 0.034 mPa·s | viscosity (303.15 K, 101 kPa, x2 = 0.7497): 2.99 ± 0.037 mPa·s | viscosity (303.15 K, 101 kPa, x2 = 0.8365): 3.56 ± 0.039 mPa·s | viscosity (303.15 K, 101 kPa, x2 = 0.9206): 4.198 ± 0.041 mPa·s

[Cl-].[Cl-].[Cl-].[La+3] + O
viscosity (293.15 K, 100 kPa, x1 = 0.000538): 1.026 ± 0.012 mPa·s | viscosity (293.15 K, 100 kPa, x1 = 0.000907): 1.037 ± 0.012 mPa·s | viscosity (293.15 K, 100 kPa, x1 = 0.003595): 1.12 ± 0.013 mPa·s | viscosity (293.15 K, 101.3 kPa, x1 = 0.0009): 1.037 ± 0.022 mPa·s | viscosity (293.15 K, 101.3 kPa, x1 = 0.0177): 1.818 ± 0.039 mPa·s | viscosity (293.15 K, 101.3 kPa, x1 = 0.02631): 2.522 ± 0.054 mPa·s | viscosity (293.15 K, 101.3 kPa, x1 = 0.03478): 3.611 ± 0.077 mPa·s | viscosity (293.15 K, 101.3 kPa, x1 = 0.0431): 5.287 ± 0.11 mPa·s | viscosity (293.15 K, 101.3 kPa, x1 = 0.05127): 7.977 ± 0.17 mPa·s | viscosity (298.15 K, 100 kPa, x1 = 0.000538): 0.9124 ± 0.01 mPa·s | viscosity (298.15 K, 100 kPa, x1 = 0.000907): 0.922 ± 0.011 mPa·s | viscosity (298.15 K, 100 kPa, x1 = 0.001802): 0.9485 ± 0.011 mPa·s | viscosity (298.15 K, 100 kPa, x1 = 0.003595): 0.9971 ± 0.011 mPa·s | viscosity (298.15 K, 101.3 kPa, x1 = 0.0009): 0.9217 ± 0.02 mPa·s | viscosity (298.15 K, 101.3 kPa, x1 = 0.0177): 1.623 ± 0.034 mPa·s | viscosity (298.15 K, 101.3 kPa, x1 = 0.02631): 2.246 ± 0.048 mPa·s | viscosity (298.15 K, 101.3 kPa, x1 = 0.03478): 3.199 ± 0.068 mPa·s | viscosity (298.15 K, 101.3 kPa, x1 = 0.0431): 4.642 ± 0.099 mPa·s | viscosity (298.15 K, 101.3 kPa, x1 = 0.05127): 6.922 ± 0.15 mPa·s | viscosity (303.15 K, 100 kPa, x1 = 0.000538): 0.8179 ± 0.0095 mPa·s | viscosity (303.15 K, 100 kPa, x1 = 0.000907): 0.8265 ± 0.0096 mPa·s | viscosity (303.15 K, 100 kPa, x1 = 0.001802): 0.8506 ± 0.0098 mPa·s | viscosity (303.15 K, 100 kPa, x1 = 0.003595): 0.8947 ± 0.01 mPa·s | viscosity (303.15 K, 100 kPa, x1 = 0.005372): 0.9462 ± 0.011 mPa·s | viscosity (303.15 K, 100 kPa, x1 = 0.008936): 1.076 ± 0.012 mPa·s | viscosity (303.15 K, 101 kPa, x1 = 0.008899): 1.075 ± 0.013 mPa·s | viscosity (303.15 K, 101.3 kPa, x1 = 0.0009): 0.8261 ± 0.018 mPa·s | viscosity (303.15 K, 101.3 kPa, x1 = 0.00893): 1.076 ± 0.023 mPa·s | viscosity (303.15 K, 101.3 kPa, x1 = 0.0177): 1.46 ± 0.031 mPa·s | viscosity (303.15 K, 101.3 kPa, x1 = 0.02631): 2.016 ± 0.043 mPa·s | viscosity (303.15 K, 101.3 kPa, x1 = 0.03478): 2.857 ± 0.061 mPa·s | viscosity (303.15 K, 101.3 kPa, x1 = 0.0431): 4.114 ± 0.088 mPa·s | viscosity (303.15 K, 101.3 kPa, x1 = 0.05127): 6.069 ± 0.13 mPa·s | viscosity (308.15 K, 100 kPa, x1 = 0.000538): 0.7374 ± 0.0086 mPa·s | viscosity (308.15 K, 100 kPa, x1 = 0.000907): 0.7452 ± 0.0087 mPa·s | viscosity (308.15 K, 100 kPa, x1 = 0.001802): 0.7674 ± 0.0089 mPa·s | viscosity (308.15 K, 100 kPa, x1 = 0.003595): 0.8106 ± 0.0094 mPa·s | viscosity (308.15 K, 100 kPa, x1 = 0.005372): 0.857 ± 0.0099 mPa·s | viscosity (308.15 K, 100 kPa, x1 = 0.007147): 0.9116 ± 0.01 mPa·s | viscosity (308.15 K, 100 kPa, x1 = 0.008936): 0.9725 ± 0.011 mPa·s | viscosity (308.15 K, 100 kPa, x1 = 0.0107): 1.041 ± 0.012 mPa·s | viscosity (308.15 K, 101.3 kPa, x1 = 0.0009): 0.7453 ± 0.016 mPa·s | viscosity (308.15 K, 101.3 kPa, x1 = 0.0018): 0.7687 ± 0.016 mPa·s | viscosity (308.15 K, 101.3 kPa, x1 = 0.00893): 0.9735 ± 0.021 mPa·s | viscosity (308.15 K, 101.3 kPa, x1 = 0.0177): 1.322 ± 0.028 mPa·s | viscosity (308.15 K, 101.3 kPa, x1 = 0.02631): 1.824 ± 0.039 mPa·s | viscosity (308.15 K, 101.3 kPa, x1 = 0.03478): 2.573 ± 0.054 mPa·s | viscosity (308.15 K, 101.3 kPa, x1 = 0.0431): 3.678 ± 0.078 mPa·s | viscosity (308.15 K, 101.3 kPa, x1 = 0.05127): 5.371 ± 0.11 mPa·s | viscosity (318.15 K, 101.3 kPa, x1 = 0.0009): 0.618 ± 0.013 mPa·s | viscosity (318.15 K, 101.3 kPa, x1 = 0.0018): 0.6382 ± 0.013 mPa·s | viscosity (318.15 K, 101.3 kPa, x1 = 0.00893): 0.8112 ± 0.017 mPa·s | viscosity (318.15 K, 101.3 kPa, x1 = 0.0177): 1.102 ± 0.023 mPa·s | viscosity (318.15 K, 101.3 kPa, x1 = 0.02631): 1.516 ± 0.032 mPa·s | viscosity (318.15 K, 101.3 kPa, x1 = 0.03478): 2.12 ± 0.045 mPa·s | viscosity (318.15 K, 101.3 kPa, x1 = 0.0431): 2.992 ± 0.063 mPa·s | viscosity (318.15 K, 101.3 kPa, x1 = 0.05127): 4.29 ± 0.091 mPa·s
